Here are results for two substances from patent US8440637B2, “Combination treatment for the treatment of hepatitis C virus infection” (priority 2007, dated 2013).

The subject of series [1] is miR-122a. Briefly: Melting temperature (Tm) of LNA anti-miR/miR-122a RNA duplex. Conditions: Table 2; towards synthetic miR-122a RNA oligonucleotide with phosphorothioate linkages; PS backbone. The series is classed as physicochemical, human. As to the method: The melting temperatures were assessed towards the mature miR-122a sequence, using a synthetic miR-122a RNA oligonucleotide with phosphorothioate linkaged.
The LNA anti-miR/miR-122a oligo duplex was diluted to 3 μM in 500 μl RNase free H2O, which was then mixed with 500 μl 2× dimerization buffer (final oligo/duplex conc. 1.5 μM, 2× Tm buffer: 200 mM NaCl, 0.2 mM EDTA, 20 mM NaP, pH 7.0, DEPC treated to remove RNases). The mix was first heated to 95 degrees for 3 minutes, then allowed to cool at room temperature (RT) for 30 minutes.
Following RT incubation Tm was measured on Lambda 40 UV/VIS Spectrophotometer with peltier temperature progammer PTP6 using PE Templab software (Perkin Elmer). The temperature was ramped up from 20° C. to 95° C. and then down again to 20° C., continuously recording absorption at 260 nm. First derivative and local maximums of both the melting and annealing was used to assess melting/annealing point (Tm), both should give similar/same Tm values. For the first derivative 91 points was used to calculate the slope.

Series [2] deals with miR-122a. Put plainly: miR-122a level in transfected Huh-7 cells by miR-122a specific qRT-PCR. The series is classed as cell-based, human. Conditions: transfected at 1 and 100 nM, 24 hours after transfection. As to the method:
The miR-122a expressing cell line Huh-7 was transfected with LNA anti-miR5 at 1 and 100 nM concentrations according to optimized lipofectamine 2000 (LF2000, Invitrogen) protocol (as follows).
Huh-7 cells were cultivated in Eagles MEM with 10% FBS, 2 mM Glutamax I, 1× non-essential amino acids, Gentamicin 25 μg/ml. The cells were seeded in 6-well plates (300000 cells per well), in a total vol. of 2.5 ml the day before transfection. At the day of transfection a solution containing LF2000 diluted in Optimem (Invitrogen) was prepared (1.2 ml optimem+3.75 μl LF2000 per well, final 2.5 μg LF2000/ml, final tot vol 1.5 ml).
LNA Oligonucleotides (LNA anti-miRs) were also diluted in optimem. 285 μl optimem+15 μl LNA oligonucleotide (10 μM oligonucleotide stock for final concentration 100 nM and 0.1 μM for final concentration 1 nM) Cells were washed once in optimem then the 1.2 ml optimem/LF2000 mix were added to each well. Cells were incubated 7 min at room temperature in the LF2000 mix where after the 300 μl oligonucleotide optimem solution was added. […]
miR-122a levels in the RNA samples were assessed on an ABI 7500 Fast real-time PCR instrument (Applied Biosystems, USA) using a miR-122a specific qRT-PCR kit, mirVana (Ambion, USA) and miR-122a primers (Ambion, USA). […]

Series [3] concerns miR-122a. Put plainly: miR-122a levels in mouse liver by microRNA specific qPCR. The series is classed as in vivo. Conditions: hypercholesterolemic and normal mice; 5 mg/kg i.p. twice weekly for 5½ weeks. As to the method: Total RNA was extracted from liver samples as described above and analysed for miR-122a levels by microRNA specific QPCR.
In vivo study: Ten groups of animals (female C57/BL6; 3 mice per group) were treated in the following manner. Group 1 animals were injected with 0.2 ml saline by i.p. on day 0, day 2 and day 4. Groups 2-10 were dosed by i.p. with three different conc. (25 mg/kg, 5 mg/kg and 1 mg/kg) of either LNA antimiR-122a/SEQ ID NO: 61 (group 2-4), LNA antimir-122a/SEQ ID NO: 66 (group 5-7) or LNA antimir-122a/SEQ ID NO: 63 (group 8-10); the LNA antimir-122a sequences are given in the Table 1. All three LNA antimiR-122a oligonucleotides target the liver-specific miR-122a. The doses were calculated from the Day 0 body weights of each animal.
The animals were sacrificed 48 hours after last dose (Day 6), retro-orbital blood was collected in tubes containing EDTA and the plasma fraction harvested and stored frozen −80° C. for cholesterol analysis. At sacrifice livers were dissected and one portion was cut into 5 mm cubes and immersed in 5 volumes of ice-cold RNAlater. A second portion was snap frozen in liquid nitrogen and stored for cryo-sectioning.
Total RNA was extracted from liver samples using Trizol reagent according to the manufacturer's recommendations (Invitrogen, USA) and analysed for miR-122a levels by microRNA-specific QPCR according to the manufacturer's recommendations (Ambion, USA). […]
NMRI female mice were treated with indicated doses of LNA-antimiR (SEQ ID NO: 61) along with a mismatch control (m, SEQ ID NO: 65), saline and antagomir (SPC3595) for three consecutive days and sacrificed 24 hours after last dose (as in example 11 “old design”, n=5). miR-122 levels were analyzed by qPCR and normalized to the saline treated group.
(§1) C57BL/6J female mice were fed on high fat diet for 13 weeks before the initiation of the SEQ ID NO: 63 treatment. […] Both hypercholesterolemic and normal mice were treated i.p. twice weekly with 5 mg/kg SEQ ID NO: 63 and the corresponding mismatch control for a study period of 5½ weeks. Blood samples were collected weekly and total plasma cholesterol was measured during the entire course of the study. Upon sacrificing the mice, liver and blood samples were prepared for total RNA extraction, miRNA and mRNA quantification, assessment of the serum transaminase levels, and liver histology.
The miR-122 and let-7a microRNA levels were quantified with TaqMan microRNA Assay (Applied Biosystems) following the manufacturer's instructions. The RT reaction was diluted ten times in water and subsequently used for real time PCR amplification according to the manufacturer's instructions. A two-fold cDNA dilution series from liver total RNA of a saline-treated animal or mock transfected cells cDNA reaction (using 2.5 times more total RNA than in samples) served as standard to ensure a linear range (Ct versus relative copy number) of the amplification. Applied Biosystems 7500 or 7900 real-time PCR instrument was used for amplification.

The next series concerns miR-122. Put plainly: Total plasma cholesterol in hypercholesterolemic and normal mice, long-term treatment. It counts as in vivo, mouse. Conditions: hypercholesterolemic and normal mice; 5 mg/kg i.p. twice weekly. The protocol:
as §1
C57BL/6J female mice (Taconic M&B Laboratory Animals, Ejby, Denmark) were used. All substances were formulated in physiological saline (0.9% NaCl) to final concentration allowing the mice to receive an intraperitoneal injection volume of 10 ml/kg.
In the diet induced obesity study, the mice received a high fat (60EN %) diet (D12492, Research Diets) for 13 weeks to increase their blood cholesterol level before the dosing started. The dose regimen was stretched out to 5½ weeks of 5 mg/kg LNA-antimiR™ twice weekly. Blood plasma was collected once a week during the entire dosing period. After completion of the experiment the mice were sacrificed and RNA extracted from the livers for further analysis. Serum was also collected for analysis of liver enzymes.
Immediately before sacrifice retro-orbital sinus blood was collected in EDTA-coated tubes followed by isolation of the plasma fraction. Total plasma cholesterol was analysed using ABX Pentra Cholesterol CP (Horiba Group, Horiba ABX Diagnostics) according to the manufacturer's instructions.

For series [4], the system named is miR-122a target genes (Bckdk, aldolase A, Nrdg3, CD320, Vldlr). Briefly: miR-122a target mRNA levels in mouse liver by qPCR. The series is classed as in vivo. Conditions: 5 mg/kg i.p. twice weekly for 5½ weeks. On the technique in general: Real-time PCR tracks product formation cycle by cycle.

Strand notation (5' to 3'): a small letter for the sugar, then the base; units joined by * are phosphorothioate-linked, units joined directly phosphodiester-linked; [ ] holds rarer units or linkages, { } end groups; capitals alone tell only the bases. l = locked nucleic acid (LNA); [5mC] = 5-methylcytosine; d = 2'-deoxy (DNA)

In the case of “5′-CcAttCTgaCcCtAC-3′ (antisense l[5mC]*dC*lA*dT*dT*l[5mC]*lT*dG*dA*l[5mC]*dC*l[5mC]*dT*lA*l[5mC]) [SEQ ID NO: 64, reference compound]”, the “Tm (° C.)” value in the series with miR-122a [1] came out at 32 °C. In addition, the “inhibition of miR-122a (in words)” value with miR-122a [2] is recorded as “not found to inhibit miR-122a”.
Regarding “mismatch control: the corresponding mismatch control to SEQ ID NO: 63 in Example 31; probably SEQ ID NO: 64 (antisense l[5mC]*dC*lA*dT*dT*l[5mC]*lT*dG*dA*l[5mC]*dC*l[5mC]*dT*lA*l[5mC]) [reference compound]”, the “miR-122 levels in liver after long-term treatment (in words)” value in the series on miR-122a [3] is given as “had an effect on miR-122 levels”. For the same substance, the “effect on plasma cholesterol levels (in words)” value with miR-122 is “did not affect the plasma cholesterol levels”. Moreover, the “de-repression of direct miR-122 target genes (AldoA and Bckdk) after long-term treatment (in words)” value in series [4] is reported as “did not result in any functional de-repression”.
